In the NIST ThermoML archive (doi:10.1016/j.jct.2017.07.004):

Experiment: xn = mol fraction of the nth substance listed
Details: 100 kPa, Liquid; for viscosity: Concentric cylinders viscometry; for mass density: Vibrating tube method

CCC=O [propanal] + CCC(C)O
Details	mass density [kg/m3]	viscosity [mPa·s]
293.15 K, x1 = 0.0811	810.5	3.49
293.15 K, x1 = 0.16	813.1	3.29
293.15 K, x1 = 0.24	815.1	3.06
293.15 K, x1 = 0.35	817	2.72
293.15 K, x1 = 0.44	817.8	2.42
293.15 K, x1 = 0.56	817.7	2
293.15 K, x1 = 0.6499	816.7	1.67
293.15 K, x1 = 0.7401	814.7	1.34
293.15 K, x1 = 0.8501	810.8	0.92
293.15 K, x1 = 0.9401	806.5	0.58
293.15 K, x1 = 1	802.4	0.34
298.15 K, x1 = 0.0811	806	2.89
298.15 K, x1 = 0.16	808.4	2.73
298.15 K, x1 = 0.24	810.3	2.55
298.15 K, x1 = 0.35	811.8	2.27
298.15 K, x1 = 0.44	812.3	2.03
298.15 K, x1 = 0.56	811.8	1.68
298.15 K, x1 = 0.6499	810.5	1.41
298.15 K, x1 = 0.7401	808.4	1.14
298.15 K, x1 = 0.8501	804.5	0.8
298.15 K, x1 = 0.9401	800	0.52
298.15 K, x1 = 1	796.2	0.33
303.15 K, x1 = 0.0811	801.1	2.41
303.15 K, x1 = 0.16	803.2	2.27
303.15 K, x1 = 0.24	804.8	2.12
303.15 K, x1 = 0.35	806	1.89
303.15 K, x1 = 0.44	806.5	1.69
303.15 K, x1 = 0.56	805.7	1.41
303.15 K, x1 = 0.6499	804.3	1.19
303.15 K, x1 = 0.7401	802	0.97
303.15 K, x1 = 0.8501	798	0.69
303.15 K, x1 = 0.9401	794	0.46
303.15 K, x1 = 1	790.3	0.31
308.15 K, x1 = 0.0811	796.4	2.02
308.15 K, x1 = 0.16	798	1.9
308.15 K, x1 = 0.24	799.4	1.77
308.15 K, x1 = 0.35	800.3	1.58
308.15 K, x1 = 0.44	800.4	1.41
308.15 K, x1 = 0.56	799.5	1.18
308.15 K, x1 = 0.6499	798.1	1.01
308.15 K, x1 = 0.7401	795.9	0.82
308.15 K, x1 = 0.8501	791.8	0.6
308.15 K, x1 = 0.9401	788	0.42
308.15 K, x1 = 1	784.5	0.3
313.15 K, x1 = 0.0811	791.7	1.71
313.15 K, x1 = 0.16	793	1.61
313.15 K, x1 = 0.24	794	1.5
313.15 K, x1 = 0.35	794.6	1.34
313.15 K, x1 = 0.44	794.6	1.2
313.15 K, x1 = 0.56	793.5	1.01
313.15 K, x1 = 0.6499	792	0.86
313.15 K, x1 = 0.7401	789.8	0.72
313.15 K, x1 = 0.8501	786	0.53
313.15 K, x1 = 0.9401	782.4	0.38
313.15 K, x1 = 1	779	0.28
318.15 K, x1 = 0.0811	786.8	1.45
318.15 K, x1 = 0.16	787.9	1.36
318.15 K, x1 = 0.24	788.6	1.27
318.15 K, x1 = 0.35	789.1	1.13
318.15 K, x1 = 0.44	788.8	1.02
318.15 K, x1 = 0.56	787.6	0.86
318.15 K, x1 = 0.6499	786.1	0.74
318.15 K, x1 = 0.7401	783.8	0.62
318.15 K, x1 = 0.8501	780	0.47
318.15 K, x1 = 0.9401	776.5	0.35
318.15 K, x1 = 1	773.5	0.27
323.15 K, x1 = 0.0811	781.9	1.25
323.15 K, x1 = 0.16	782.6	1.17
323.15 K, x1 = 0.24	783.1	1.09
323.15 K, x1 = 0.35	783.2	0.97
323.15 K, x1 = 0.44	782.8	0.87
323.15 K, x1 = 0.56	781.5	0.74
323.15 K, x1 = 0.6499	779.8	0.64
323.15 K, x1 = 0.7401	777.7	0.54
323.15 K, x1 = 0.8501	774.3	0.42
323.15 K, x1 = 0.9401	770.9	0.32
323.15 K, x1 = 1	768.2	0.25
